{"source": "patent US10184112B2", "about": "“Culture medium additive for use in serum-free culturing of animal cell, kit and use thereof” (Two Cells Co., Ltd., priority 2006, dated 2019)", "note": "“Also recorded” adds a separate entry of the source.", "data": [{"tested_on": "Akt", "assay": "Mitogenic signal transduction, western blot for phosphorylated Akt (FIGS. 11, 12)", "format": "cell-based", "conditions": "human mesenchymal stem cells stimulated; compared with controlled cells (not stimulated)", "experimental": "For the purpose of clarifying a mechanism of cell proliferation in a serum-free culture medium, study was further conducted on activation of a mitogenic signal transduction system caused by each additive factor added into a serum-free culture medium. An active state of the mitogenic signal transduction system caused by each additive factor was analyzed by a western blot method. Here, in protein phosphoenzymes that are particularly closely related to cell proliferation, an extracellular signal control kinase Erk 1/2 and an Akt (a protein phosphoenzyme located downstream to PI3K, and related to regulations of cell functions) were focused in the present example. When the Erk1 1/2 and the Akt are phosphorylated, they are converted into active forms. In a culture medium containing 10% FBS on a 12-well plate, human mesenchymal stem cells (three cell lines) were cultured until the cells were in a subconfluent state. The cultured cells were washed twice with PBS, and were then further cultured for 16 hours in a serum-free culture medium containing 1.25 mg/ml of BSA (bovine serum albumin). […] Proteins thus separated into fractions were transferred on a PVDF membrane (made by Millipore Co.), and then, the fractions were analyzed with antiphosphorylation-specific Erk 1/2 antibody, or antiphosphorylation-specific Akt antibody (both are made by Cell Signaling technology Inc.).", "values": [{"compound": "HGF: growth factor added to the serum-free culture medium", "phosphorylation of the Akt": "also promoted"}, {"compound": "3-sn-phosphatidic acid from egg yolk", "phosphorylation of the Akt": "strongly promoted"}]}, {"tested_on": "Erk 1/2", "assay": "Mitogenic signal transduction, western blot for phosphorylated Erk 1/2 (FIGS. 11, 12)", "format": "cell-based", "conditions": "human mesenchymal stem cells stimulated; compared with controlled cells (not stimulated)", "experimental": "For the purpose of clarifying a mechanism of cell proliferation in a serum-free culture medium, study was further conducted on activation of a mitogenic signal transduction system caused by each additive factor added into a serum-free culture medium. An active state of the mitogenic signal transduction system caused by each additive factor was analyzed by a western blot method. Here, in protein phosphoenzymes that are particularly closely related to cell proliferation, an extracellular signal control kinase Erk 1/2 and an Akt (a protein phosphoenzyme located downstream to PI3K, and related to regulations of cell functions) were focused in the present example. When the Erk1 1/2 and the Akt are phosphorylated, they are converted into active forms. […] The cultured cells were washed twice with PBS, and were then further cultured for 16 hours in a serum-free culture medium containing 1.25 mg/ml of BSA (bovine serum albumin). After that, the cultured cells were incubated for minutes respectively: (i) in stimulating solutions respectively containing growth factors (E: EGF, F: FGF, G: PDGF, H: HGF, I: insulin, J: TGF-β), dexamethasone (D), transferrin (T); […] B1, A6: phosphatidic acid, A7: phosphatidyl choline); and (iii) in a controlling solution containing none of them. Further, each of the stimulating solutions, and the controlling solution were removed by suction on ice, and then, the cells were washed twice with PBS. The cells thus washed were dissolved in lysis buffer. The resultant cell lysis solution was centrifuged by 6.500 g for 10 minutes, and its supernatant liquid was electrophoresed on 10% SDS-polyacrylamide gel. Proteins thus separated into fractions were transferred on a PVDF membrane (made by Millipore Co.), and then, the fractions were analyzed with antiphosphorylation-specific Erk 1/2 antibody, or antiphosphorylation-specific Akt antibody (both are made by Cell Signaling technology Inc.).", "values": [{"compound": "HGF: growth factor added to the serum-free culture medium", "phosphorylation of the Erk 1/2": "more phosphorylated; also recorded: promoted in view of concentration dependence"}, {"compound": "3-sn-phosphatidyl choline from egg yolk", "phosphorylation of the Erk 1/2": "promoted"}, {"compound": "CCCCC/C=C\\C/C=C\\C/C=C\\C/C=C\\CCCC(=O)O", "note": "[arachidonic acid]", "phosphorylation of the Erk 1/2": "promoted"}, {"compound": "PDGF", "phosphorylation of the Erk 1/2": "more phosphorylated"}, {"compound": "FGF: growth factor of the fibroblast growth factor family, preferably FGF-2 (bFGF)", "phosphorylation of the Erk 1/2": "more phosphorylated"}, {"compound": "3-sn-phosphatidic acid from egg yolk", "phosphorylation of the Erk 1/2": "strongly promoted"}, {"compound": "insulin: medium supplement", "phosphorylation of the Erk 1/2": "more phosphorylated"}, {"compound": "CCCCCCCC/C=C\\CCCCCCCC(=O)O", "note": "[oleic acid]", "phosphorylation of the Erk 1/2": "promoted"}, {"compound": "EGF: epidermal growth factor", "phosphorylation of the Erk 1/2": "more phosphorylated"}, {"compound": "CCCCC/C=C\\C/C=C\\CCCCCCCC(=O)O", "note": "[linoleic acid]", "phosphorylation of the Erk 1/2": "promoted"}]}, {"tested_on": "human mesenchymal stem cell", "assay": "not given", "conditions": "added to a culture medium containing 10% FBS; cited from earlier work", "values": [{"compound": "[Cl-].[Li+]", "note": "[lithium chloride]", "proliferation of a human mesenchymal stem cell": "promoting proliferation", "wingless/int (wnt) signal pathway": "activates"}]}]}
